Consider two compounds from US20190100534A1, “Cephem Compounds with Latent Reactive Groups” (Gladius Pharmaceuticals, Inc., priority 2017, published 2019).

Structures are written as SMILES.

Common to all, as to format: cell-based
The test system of assay [1] is Pseudomonas aeruginosa PA (RR-2). As to the kind of experiment: MIC determination. Particulars: Pseudomonas aeruginosa; PA (RR-2); CAMH broth, 20 μM Apo-Transferrin, 37° C., 18 hours; read-out: Minimum Inhibitory Concentrations, PA (RR-2). The method, boiled down:
(§1)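 Broth microdilution in CAMH + 20 μM apo-transferrin; inoculum 0.5 McFarland, used within 30 min. Compound 64→0.125 μg/mL, twofold steps. 37 °C, 18 h. MIC = lowest clear-well concentration.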

The test system of assay [2] is Pseudomonas aeruginosa PA (URMC-2). As to the kind of experiment: MIC determination. The note with it: Pseudomonas aeruginosa; PA (URMC-2); CAMH broth, 20 μM Apo-Transferrin, 37° C., 18 hours; read-out: Minimum Inhibitory Concentrations, PA (URMC-2). The method, boiled down: as §1
The test system of assay [3] is Pseudomonas aeruginosa PA (URMC-3). Nature of the assay: MIC determination. The note with it: Pseudomonas aeruginosa; PA (URMC-3); CAMH broth, 20 μM Apo-Transferrin, 37° C., 18 hours; read-out: Minimum Inhibitory Concentrations, PA (URMC-3). The method, boiled down: as §1
The subject of assay [4] is Pseudomonas aeruginosa PA-RR-(98023895). Nature of the assay: MIC determination. Particulars: Pseudomonas aeruginosa; PA-RR-(98023895); CAMH broth, 20 μM Apo-Transferrin, 37° C., 18 hours; read-out: Minimum Inhibitory Concentrations, PA-RR-(98023895). In outline: as §1
Assay [5] deals with Pseudomonas aeruginosa PA-RR-(G7294437). As to the kind of experiment: MIC determination. Particulars: Pseudomonas aeruginosa; PA-RR-(G7294437); CAMH broth, 20 μM Apo-Transferrin, 37° C., 18 hours; read-out: Minimum Inhibitory Concentrations, PA-RR-(G7294437). The method, boiled down:
as §1

The test system of assay [6] is Pseudomonas aeruginosa PA-RR-(G7304100). Nature of the assay: MIC determination. The note with it: Pseudomonas aeruginosa; PA-RR-(G7304100); CAMH broth, 20 μM Apo-Transferrin, 37° C., 18 hours; read-out: Minimum Inhibitory Concentrations, PA-RR-(G7304100). In outline: as §1
For assay [7], the system named is Pseudomonas aeruginosa PA-RR-(G7305586). As to the kind of experiment: MIC determination. The note with it: Pseudomonas aeruginosa; PA-RR-(G7305586); CAMH broth, 20 μM Apo-Transferrin, 37° C., 18 hours; read-out: Minimum Inhibitory Concentrations, PA-RR-(G7305586). In outline:
as §1

For assay [8], the system named is Pseudomonas aeruginosa PA-RR-(purple Fre D). Nature of the assay: MIC determination. Particulars: Pseudomonas aeruginosa, CAMH broth, 20 μM Apo-Transferrin, 37° C., 18 hours, read-out: Minimum Inhibitory Concentrations, PA-RR-(purple Fre D). The method, boiled down:
as §1

Assay [9] has as its system E. coli J53 Alone. Nature of the assay: MIC determination, isogenic E. coli strains. Particulars: for MIC: Escherichia coli, J53ALONE, 18 h, read-out: Mimimum Inhibitory Concentrations, J53 Alone; for Mimimum Inhibitory Concentrations, J53 Alone: Table 4-2, CAMH broth, 20 μM Apo-Transferrin, 37° C., 18 hours. The method, boiled down: (§2)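 MIC read as the lowest compound level giving a transparent well after 18 h at 37° C. Strains: parent E. coli J53 and isogenic transformants expressing plasmid-borne (pBC-SK(+)) beta-lactamases such as DHA-1; inoculum 0.5 McFarland; CAMH broth plus 20 μM apo-transferrin; compound 64 μg/mL downward, 2-fold dilutions.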

Assay [10] has as its system Isogenic E. coli J58 strain carrying DHA-1. As to the kind of experiment: MIC determination, isogenic E. coli strains. Particulars: Escherichia coli, 18 h, read-out: Mimimum Inhibitory Concentrations, DHA-1. The method, boiled down:
as §2

Assay [11] deals with Isogenic E. coli J58 strain carrying TEM-26. As to the kind of experiment: MIC determination, isogenic E. coli strains. The note with it: Escherichia coli, 18 h, read-out: Mimimum Inhibitory Concentrations, TEM-26. In outline:
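E. coli J53 carried a pBC-SK(+) plasmid expressing TEM-26 β-lactamase. Compounds were serially halved from […] in CAMH broth containing 20 μM apo-transferrin, inoculated from a 0.5 McFarland culture and held overnight (18 h, 37° C); MIC read as the lowest concentration without visible growth.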

The subject of assay [12] is Isogenic E. coli J58 strain carrying CTX-M-14. As to the kind of experiment: MIC determination, isogenic E. coli strains. Particulars: Escherichia coli, 18 h, read-out: Mimimum Inhibitory Concentrations, CTX-M-14. The method, boiled down: (§3)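 Isogenic E. coli J53 carrying plasmid-encoded CTX-M-14 or CTX-M-15 (ampicillin-selected), standardized to 0.08-0.1 OD600, incubated overnight (18 h, 37° C.) in CAMH broth plus 20 μM apo-transferrin over 2-fold compound dilutions starting at 64 μg/mL. Lowest concentration with no visible growth recorded as MIC.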

The subject of assay [13] is Isogenic E. coli J58 strain carrying CTX-M-15. As to the kind of experiment: MIC determination, isogenic E. coli strains. Particulars: Escherichia coli, 18 h, read-out: Mimimum Inhibitory Concentrations, CTX-M-15. The method, boiled down: as §3
Assay [14] has as its system Isogenic E. coli J58 strain carrying KPC-2. Nature of the assay: MIC determination, isogenic E. coli strains. Particulars: Escherichia coli, 18 h, read-out: Mimimum Inhibitory Concentrations, KPC-2. In outline: (§4)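 Strain: E. coli J53 electroporated with a pBC-SK(+) plasmid encoding the KPC enzyme, selected on ampicillin. Twofold dilutions ([…]) were made in CAMH broth containing 20 μM apo-transferrin and inoculated at 0.5 McFarland. After overnight (18 h) growth at 37 °C, MIC was read as the lowest concentration with no visible growth.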

The subject of assay [15] is Isogenic E. coli J58 strain carrying KPC-3. Nature of the assay: MIC determination, isogenic E. coli strains. Particulars: Escherichia coli, 18 h, read-out: Mimimum Inhibitory Concentrations, KPC-3. The method, boiled down:
as §4

Assay [16] relates to Isogenic E. coli J58 strain carrying NDM-1. As to the kind of experiment: MIC determination, isogenic E. coli strains. The note with it: Escherichia coli, 18 h, read-out: Mimimum Inhibitory Concentrations, NDM-1. In outline:
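Broth microdilution was run in cation-adjusted Mueller-Hinton broth supplemented with 20 μM apo-transferrin, using a 64 μg/mL top concentration diluted twofold. The inoculum was NDM-1-expressing E. coli J53 (pBC-SK(+) plasmid) at 0.5 McFarland. After overnight incubation (18 h, 37° C), the lowest compound concentration preventing visible growth was recorded as the MIC.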

In assay [17] the test system is Isogenic E. coli J58 strain carrying VIM-2. Nature of the assay: MIC determination, isogenic E. coli strains. The note with it: Escherichia coli, 18 h, read-out: Mimimum Inhibitory Concentrations, VIM-2. The method, boiled down:
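Broth microdilution in cation-adjusted Mueller-Hinton with 20 μM apo-transferrin, compound serially halved from 64 μg/mL, read by eye after 18 h at 37 °C as lowest clear well. Inoculum: VIM-2-expressing E. coli J53 (pBC-SK(+) plasmid), adjusted to 0.5 McFarland.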

Turning to `CC(C)(O/N=C(\C(=O)N[C@@H]1C(=O)N2C(C(=O)O)=C(C=Cc3ccc(C[n+]4ccc(NC(=O)c5ccc(O)c(O)c5)cc4)cc3)CS[C@H]12)c1csc(N)n1)C(=O)O` (mixture of isomers) [Compound 427, 1-(4-((E/Z)-2-((6R,7R)-7-((Z)-2-(2-aminothiazol-4-yl)-2-(((2-carboxypropan-2-yl)oxy)imino)acetamido)-2-carboxy-8-oxo-5-thia-1-azabicyclo[4.2.0]oct-2-en-3-yl)vinyl)benzyl)-4-(3,4-dihydroxybenzamido)pyridin-1-ium], the MIC in assay [1] is not above 0.06 µg/mL; in [2], 0.06 µg/mL; in [3] it was 0.25 µg/mL; in [4], 4 µg/mL; in assay [5], not above 0.06 µg/mL; in assay [6], not above 0.06 µg/mL. In addition, the MIC in assay [7] was 8 µg/mL; in assay [8] it was 0.25 µg/mL; in assay [9], not above 0.06 µg/mL; in [10], 1 µg/mL; in assay [11] it was 2 µg/mL; in assay [12], 1 µg/mL. For the same compound, the MIC is 1 µg/mL in assay [13]; 16 µg/mL in assay [14]; 4 µg/mL in assay [15]; more than 64 µg/mL in assay [16]; 1 µg/mL in assay [17]. Further, the “Mimimum Inhibitory Concentrations, J53 Alone” value in [9] is reported as not above 0.06 microgram/mL.

`CC(C)(O/N=C(\C(=O)N[C@@H]1C(=O)N2C(C(=O)O)=C(C=Cc3ccc(C[N+](C)(C)Cc4ccc(O)c(O)c4)cc3)CS[C@H]12)c1csc(N)n1)C(=O)O` (mixture of isomers) [Compound 426, N-(4-((E/Z)-2-((6R,7R)-7-((Z)-2-(2-aminothiazol-4-yl)-2-(((2-carboxypropan-2-yl)oxy)imino)acetamido)-2-carboxy-8-oxo-5-thia-1-azabicyclo[4.2.0]oct-2-en-3-yl)vinyl)benzyl)-1-(3,4-dihydroxyphenyl)-N,N-dimethylmethanaminium]: the MIC in assay [1] stood at 2 µg/mL; in assay [2], 4 µg/mL; in assay [3], 64 µg/mL; in assay [4], 8 µg/mL; in [5], 0.5 µg/mL; in assay [6], 0.25 µg/mL. The MIC is 4 µg/mL in assay [7]; 1 µg/mL in assay [8]; 1 µg/mL in assay [9]; 0.5 µg/mL in [10]; 8 µg/mL in [11]; 0.5 µg/mL in [12]. Further, the MIC was 0.5 µg/mL in [13]; 64 µg/mL in assay [14]; 8 µg/mL in assay [15]; more than 64 µg/mL in [16]; 8 µg/mL in [17]. Moreover, in [9], the “Mimimum Inhibitory Concentrations, J53 Alone” value is given as 1 microgram/mL.
